Reference: PMC6777777 (PLoS ONE, 2019)

Legend:
[1] = target: T1, nicotinic acetylcholine receptor (nAChR) from Torpedo californica (Tetronarce californica, UniProt P02710+P02712+P02714+P02718); test: Two-electrode voltage clamp: inhibition of carbachol-stimulated nAChR current; assay type: cell-based
T1 construct: flash-frozen Torpedo electric organ was purchased from Aquatic Research Consultants (San Pedro, CA); tissue Aquatic Research Consultants (San Pedro, CA); host or cells: Torpedo electric organ; Membranes were solubilized in cholate, reconstituted in asolectin liposomes and microinjected as protein into Xenopus oocytes

[2] = Titration curve of T3 (pK values); assay type: physicochemical
[3] = target: T1, nicotinic acetylcholine receptor (nAChR) from Torpedo californica; test: TEVC desensitization kinetics: decay response of nAChR current, slow component of two-exponential fit; assay type: cell-based; design: unit not given here
Experimental: (§1) Sixteen hours after injection, the oocytes were clamped using a TEVC system. All ligands were dissolved in modified Barth’s solution at the indicated pH and were perfused into the chamber using a gravity-flow system. Thyroid hormones were initially dissolved in 0.1 M NaOH. […] Acetylcholine was applied to the bath surrounding the oocyte using a gravity-flow system at 10–13 mL/min. […] Each ligand perfusion lasted 60–70 seconds; after each perfusion, the bath solution was exchanged with ligand-free buffer until the current response signal had returned to baseline for at least 120 seconds before the next application of ligand(s). Data were recorded using iWorx LabScribe v1.959.
The data were then trimmed to begin with the response as it reached 0.96 of the response peak (to avoid false inflection points by signal noise just after the response’s maximum point), and end 35 seconds post-peak. The data were then fit to a two-degree exponential function (i.e., slow and fast response; y=a×e^−(x/A1)+b×e^−(x/A2) ). […] For each ligand/environmental condition (n = 3, per condition), decay response and amplitude were calculated and averaged.

[4] = target: T1, nicotinic acetylcholine receptor (nAChR) from Torpedo californica; test: Two-electrode voltage clamp of oocytes injected with Torpedo nAChRs: inhibition of acetylcholine-stimulated current; assay type: cell-based; settings: seen at ≥ 100 μM inhibitor, 30 μM acetylcholine
Experimental: as §1

T1 sequence (P02710 25-461): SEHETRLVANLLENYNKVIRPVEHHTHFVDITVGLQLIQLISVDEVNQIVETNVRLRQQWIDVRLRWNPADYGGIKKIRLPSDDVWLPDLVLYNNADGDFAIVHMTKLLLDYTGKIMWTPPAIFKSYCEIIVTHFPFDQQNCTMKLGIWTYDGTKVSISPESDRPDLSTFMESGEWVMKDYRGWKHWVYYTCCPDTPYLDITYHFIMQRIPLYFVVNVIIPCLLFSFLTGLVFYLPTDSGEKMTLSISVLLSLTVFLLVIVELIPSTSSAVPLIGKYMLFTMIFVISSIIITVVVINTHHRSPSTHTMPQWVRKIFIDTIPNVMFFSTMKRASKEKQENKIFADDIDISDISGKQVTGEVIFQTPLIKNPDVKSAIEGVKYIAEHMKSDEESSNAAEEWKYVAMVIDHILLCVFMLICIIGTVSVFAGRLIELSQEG
T1 sequence (P02712 25-493): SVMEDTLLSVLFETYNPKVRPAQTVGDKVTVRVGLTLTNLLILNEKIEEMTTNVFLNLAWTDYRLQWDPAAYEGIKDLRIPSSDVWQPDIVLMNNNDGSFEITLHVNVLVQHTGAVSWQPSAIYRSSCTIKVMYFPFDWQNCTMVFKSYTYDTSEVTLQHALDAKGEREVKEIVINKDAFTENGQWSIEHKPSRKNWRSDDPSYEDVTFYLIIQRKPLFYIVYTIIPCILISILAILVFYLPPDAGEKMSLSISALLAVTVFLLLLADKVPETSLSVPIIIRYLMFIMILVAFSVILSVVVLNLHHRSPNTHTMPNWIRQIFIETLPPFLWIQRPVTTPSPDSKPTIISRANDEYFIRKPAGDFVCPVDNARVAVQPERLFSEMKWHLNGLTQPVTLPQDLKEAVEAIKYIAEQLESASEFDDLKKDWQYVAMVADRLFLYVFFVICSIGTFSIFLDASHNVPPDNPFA
T1 sequence (P02714 18-506): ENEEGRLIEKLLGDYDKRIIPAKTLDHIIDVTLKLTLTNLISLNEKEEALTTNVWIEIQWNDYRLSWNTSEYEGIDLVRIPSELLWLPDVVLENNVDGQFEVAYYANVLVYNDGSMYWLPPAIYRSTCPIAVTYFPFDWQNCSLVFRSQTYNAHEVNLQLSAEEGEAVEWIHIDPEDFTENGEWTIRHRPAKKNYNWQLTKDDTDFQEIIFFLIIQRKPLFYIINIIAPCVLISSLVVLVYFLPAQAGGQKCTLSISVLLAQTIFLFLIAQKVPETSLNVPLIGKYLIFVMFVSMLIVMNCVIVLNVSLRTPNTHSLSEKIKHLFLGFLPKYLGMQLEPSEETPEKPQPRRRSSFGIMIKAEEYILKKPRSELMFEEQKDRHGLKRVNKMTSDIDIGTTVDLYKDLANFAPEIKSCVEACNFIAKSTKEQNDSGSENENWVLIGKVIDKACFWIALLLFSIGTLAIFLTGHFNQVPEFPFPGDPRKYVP
T1 sequence (P02718 22-522): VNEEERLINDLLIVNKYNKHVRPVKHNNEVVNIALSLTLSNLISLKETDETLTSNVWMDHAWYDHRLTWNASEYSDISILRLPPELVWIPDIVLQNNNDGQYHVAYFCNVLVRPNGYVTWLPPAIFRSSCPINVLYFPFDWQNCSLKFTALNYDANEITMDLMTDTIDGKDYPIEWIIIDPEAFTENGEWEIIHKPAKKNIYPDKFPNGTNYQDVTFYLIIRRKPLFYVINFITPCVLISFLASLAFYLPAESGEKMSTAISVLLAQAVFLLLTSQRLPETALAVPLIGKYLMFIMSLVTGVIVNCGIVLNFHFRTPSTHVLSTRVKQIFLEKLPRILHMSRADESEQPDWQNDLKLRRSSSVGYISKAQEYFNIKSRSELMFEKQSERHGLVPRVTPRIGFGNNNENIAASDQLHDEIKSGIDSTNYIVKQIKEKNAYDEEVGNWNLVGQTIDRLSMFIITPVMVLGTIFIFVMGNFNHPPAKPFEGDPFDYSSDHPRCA

CC(=O)[C@H]1CC[C@H]2[C@@H]3CC[C@H]4C[C@H](O)CC[C@]4(C)[C@H]3CC[C@]12C [Allopregnanolone, 3α-hydroxy-5α-pregnan-20-one]
IC50 [1]: 20 µM

N[C@@H](Cc1cc(I)c(Oc2ccc(O)c(I)c2)c(I)c1)C(=O)O [T3, L-3,3’,5-triiodothyronine]
pK3, hydroxy group [2]: 12.25

pregnenolone sulfate [PS]
Decay Response Mean ([3]; dose 0.1 μM, pH 6, 30 μM acetylcholine): 17.0
Decay Response Mean ([3]; dose 0.1 μM, pH 6.5, 30 μM acetylcholine): 26.2
Decay Response Mean ([3]; dose 0.1 μM, pH 7, 30 μM acetylcholine): 32.7
Decay Response Mean ([3]; dose 0.1 μM, pH 7.5, 30 μM acetylcholine): 32.3
Decay Response Mean ([3]; dose 0.1 μM, pH 8, 30 μM acetylcholine): 20.8
Decay Response Mean ([3]; dose 0.1 μM, pH 8.5, 30 μM acetylcholine): 7.9
Decay Response Mean ([3]; dose 0.1 μM, pH 9, 30 μM acetylcholine): 31.9
Decay Response Mean ([3]; dose 1 μM, pH 6, 30 μM acetylcholine): 8.1
Decay Response Mean ([3]; dose 1 μM, pH 6.5, 30 μM acetylcholine): 24.9
Decay Response Mean ([3]; dose 1 μM, pH 7, 30 μM acetylcholine): 13.0
Decay Response Mean ([3]; dose 1 μM, pH 7.5, 30 μM acetylcholine): 11.9
Decay Response Mean ([3]; dose 1 μM, pH 8, 30 μM acetylcholine): 9.4
Decay Response Mean ([3]; dose 1 μM, pH 8.5, 30 μM acetylcholine): 1.2
Decay Response Mean ([3]; dose 1 μM, pH 9, 30 μM acetylcholine): 18.5
Decay Response Mean ([3]; dose 10 μM, pH 6, 30 μM acetylcholine): 10.5
Decay Response Mean ([3]; dose 10 μM, pH 6.5, 30 μM acetylcholine): 11.00
Decay Response Mean ([3]; dose 10 μM, pH 7, 30 μM acetylcholine): 4.6
Decay Response Mean ([3]; dose 10 μM, pH 7.5, 30 μM acetylcholine): 4.8
Decay Response Mean ([3]; dose 10 μM, pH 8, 30 μM acetylcholine): 3.0
Decay Response Mean ([3]; dose 10 μM, pH 8.5, 30 μM acetylcholine): 3.2
apparent maximal effect: reduction of the nAChR control response [4]: 81 ± 4%
